In patent US20260022143A1, “Cyclic Peptide Inhibitors of IL-23” (JANSSEN PHARMACEUTICA NV, priority 2022, published 2026):
Positions of bridges follow the written chain, without caps; N, C: chain ends. Non-standard residues stand in square brackets, D forms with d. Residues, ends and D or L forms follow the SMILES beside them. *: point of attachment. Me3N+(CH2)2O(CH2)2O(CH2)2CO = C[N+](C)(C)CCOCCOCCC(=O)*; Trp(7-Me) = Cc1cccc2c(C[C@H](N)C(=O)O)c[nH]c12; 2Nal = N[C@@H](Cc1ccc2ccccc2c1)C(=O)O; 3Pal = N[C@@H](Cc1cccnc1)C(=O)O; Lys(Me) = CNCCCC[C@H](N)C(=O)O; Pen = CC(C)(S)[C@H](N)C(=O)O; Thp = NC1(C(=O)O)CCOCC1; X3 = C[N+](C)(C)CCCCC*; Sar = CNCC(=O)O

Key:
IL-23R = molecular target: T1, IL-23R (Homo sapiens, UniProt Q5VWK5); experiment: IL23R Reporter Assay; format: cell-based; details: HEK293 cells containing IL-23R, IL-12RP1 and STAT-inducible firefly luciferase reporter; 10 ng/mL IL-23 (EC90); 5 h at 37° C.; read-out: IL23R Reporter Assay
T1 construct: host or cells: HEK293
T1 sequence (Q5VWK5 24-629): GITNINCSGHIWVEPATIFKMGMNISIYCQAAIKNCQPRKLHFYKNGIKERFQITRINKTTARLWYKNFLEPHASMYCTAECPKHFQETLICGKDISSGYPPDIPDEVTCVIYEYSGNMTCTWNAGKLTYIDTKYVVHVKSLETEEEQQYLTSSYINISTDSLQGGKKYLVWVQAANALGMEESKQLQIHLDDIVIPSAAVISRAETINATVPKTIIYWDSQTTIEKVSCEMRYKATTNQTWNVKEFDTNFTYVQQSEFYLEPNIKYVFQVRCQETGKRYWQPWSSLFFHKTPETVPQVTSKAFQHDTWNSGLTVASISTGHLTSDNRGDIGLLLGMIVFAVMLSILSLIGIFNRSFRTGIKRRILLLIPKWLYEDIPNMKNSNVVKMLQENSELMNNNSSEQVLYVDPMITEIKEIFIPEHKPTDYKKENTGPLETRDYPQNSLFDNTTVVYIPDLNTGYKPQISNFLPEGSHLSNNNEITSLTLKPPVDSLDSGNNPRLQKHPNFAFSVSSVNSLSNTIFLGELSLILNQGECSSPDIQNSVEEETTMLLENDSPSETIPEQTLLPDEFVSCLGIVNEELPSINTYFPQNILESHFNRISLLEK

[1] = Exposed Polar Surface Area (EPSA); format: physicochemical; details: SFC on Chirex 3014 column; sample 1 mM DMSO stock; read-out: EPSA
Procedure, shortened: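 Compounds, as 1 mM DMSO stock, were injected in duplicate onto an SFC Chirex 3014 column at 35 °C and eluted with a CO2/methanol (20 mM ammonium formate) gradient. EPSA values in Å^2 were derived from retention times using a linear fit to eight calibration standards, reinjected every 20 compounds.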

IC50 (IL-23R)	EPSA [1]	SMILES
> 1190 nM	159 A^2	CC(=O)N(C)CCCC[C@@H]1NC(=O)[C@H](Cc2c[nH]c3c(C)cccc23)NC(=O)[C@H]([C@@H](C)O)NC(=O)[C@H](CC(=O)N(C)C)NC(=O)[C@@H](NC(=O)CCOCCOCC[N+](C)(C)C)C(C)(C)SSC(C)(C)[C@@H](C(=O)N[C@@H](Cc2ccc(OCCCCC[N+](C)(C)C)cc2)C(=O)N[C@@H](C)C(=O)NC2(C(=O)N[C@@H](CCCCN(C)C(C)=O)C(=O)N[C@@H](CC(N)=O)C(=O)N[C@@H](Cc3cccnc3)C(=O)N(C)CC(=O)N(C)C)CCOCC2)NC1=O [compound 500, cPEG3aCO-Pen(3)-N(N(Me)2)-T-7MeW-K(NMeAc)-Pen(3)-TMApF-A-THP-K(NMeAc)-N-3Pya-Sar-CON(Me)2] ({Me3N+(CH2)2O(CH2)2O(CH2)2CO}-[Pen]D(NMe2)T[Trp(7-Me)][Lys(Me)](Ac)[Pen]Y(X3)A[Thp][Lys(Me)](Ac)N[3Pal][Sar]-NMe2; disulfide 1-6)
4.6 nM	175 A^2	CC(=O)NCCCC[C@@H]1NC(=O)[C@H](Cc2c[nH]c3c(-c4cccc(NC(C)=O)c4)cccc23)NC(=O)[C@H]([C@@H](C)O)NC(=O)[C@H](CC(N)=O)NC(=O)[C@@H](NC(=O)CCOCCOCC[N+](C)(C)C)C(C)(C)SSC(C)(C)[C@@H](C(=O)N[C@@H](Cc2ccc(OCCCCC[N+](C)(C)C)cc2)C(=O)N[C@@H](Cc2ccc3ccccc3c2)C(=O)NC2(C(=O)N[C@@H](CCCCN(C)C(C)=O)C(=O)N[C@@H](CC(N)=O)C(=O)N[C@@H](Cc3cncc(C)c3)C(=O)N(C)CC(N)=O)CCOCC2)NC1=O [compound 501, cPEG3aCO-Pen(3)-N-T-7(3NAcPh)W-K(Ac)-Pen(3)-TMAPF-2Nal-THP-K(NMeAc)-N-5MePyridinAla-Sar-CONH2]
3.8 nM	169 A^2	CC(=O)NCCCC[C@@H]1NC(=O)[C@H](Cc2c[nH]c3c(-c4cccc(NC(C)=O)c4)cccc23)NC(=O)[C@H]([C@@H](C)O)NC(=O)[C@H](CC(N)=O)NC(=O)[C@@H](NC(C)=O)C(C)(C)SSC(C)(C)[C@@H](C(=O)N[C@@H](Cc2ccc(OCCCCC[N+](C)(C)C)cc2)C(=O)N[C@@H](Cc2ccc3ccccc3c2)C(=O)NC2(C(=O)N[C@@H](CCCCN(C)C(C)=O)C(=O)N[C@@H](CC(N)=O)C(=O)N[C@@H](Cc3cncc(C)c3)C(=O)N(C)CC(N)=O)CCOCC2)NC1=O [compound 502, MeCO-Pen(3)-N-T-7(3NAcPh)W-K(Ac)-Pen(3)-TMAPF-2Nal-THP-K(NMeAc)-N-5MePyridinAla-Sar-CONH2]
8.4 nM	169 A^2	CC(=O)NCCCC[C@@H]1NC(=O)[C@H](Cc2c[nH]c3c(-c4cccc(NC(C)=O)c4)cccc23)NC(=O)[C@H]([C@@H](C)O)NC(=O)[C@H](CC(N)=O)NC(=O)[C@@H](NC(C)=O)C(C)(C)SSC(C)(C)[C@@H](C(=O)N[C@@H](Cc2ccc(OCCCCC[N+](C)(C)C)cc2)C(=O)N[C@@H](Cc2ccc3ccccc3c2)C(=O)NC2(C(=O)N[C@@H](CCCCNC(C)=O)C(=O)N[C@@H](CC(N)=O)C(=O)N[C@@H](Cc3cncc(C)c3)C(=O)N(C)CC(N)=O)CCOCC2)NC1=O [compound 503, MeCO-Pen(3)-N-T-7(3NAcPh)W-K(Ac)-Pen(3)-TMAPF-2Nal-THP-K(Ac)-N-5MePyridinAla-Sar-CONH2]
8.6 nM	178 A^2	CC(=O)NCCCC[C@@H]1NC(=O)[C@H](Cc2c[nH]c3c(-c4cccc(NC(C)=O)c4)cccc23)NC(=O)[C@H]([C@@H](C)O)NC(=O)[C@H](CC(N)=O)NC(=O)[C@@H](NC(C)=O)C(C)(C)SSC(C)(C)[C@@H](C(=O)N[C@@H](Cc2ccc(OCCCCC[N+](C)(C)C)cc2)C(=O)N[C@@H](Cc2ccc3ccccc3c2)C(=O)NC2(C(=O)N[C@@H](CCC(=O)O)C(=O)N[C@@H](CC(N)=O)C(=O)N[C@@H](Cc3cncc(C)c3)C(=O)N(C)CC(N)=O)CCOCC2)NC1=O [compound 504, MeCO-Pen(3)-N-T-7(3NAcPh)W-K(Ac)-Pen(3)-TMAPF-2Nal-THP-E-N-5MePyridinAla-Sar-CONH2]
4.1 nM	191 A^2	CC(=O)NCCCC[C@@H]1NC(=O)[C@H](Cc2c[nH]c3c(C)cccc23)NC(=O)[C@H]([C@@H](C)O)NC(=O)[C@H](CC(N)=O)NC(=O)[C@@H](NC(=O)CCOCCOCC[N+](C)(C)C)C(C)(C)SSC(C)(C)[C@@H](C(=O)N[C@@H](Cc2ccc(OCCN)cc2)C(=O)N[C@@H](Cc2ccc3ccccc3c2)C(=O)NC2(C(=O)N[C@@H](CCC(=O)O)C(=O)N[C@@H](CC(N)=O)C(=O)N[C@@H](Cc3cncc(C)c3)C(=O)N(C)CC(N)=O)CCOCC2)NC1=O [compound 506, cPEG3aCO-Pen(3)-N-T-7MeW-K(Ac)-Pen(3)-AEF-2Nal-THP-E-N-5MePyridinAla-Sar-CONH2]
3 nM	164 A^2	CC(=O)N(C)CCCC[C@@H]1NC(=O)[C@H](Cc2c[nH]c3ccccc23)NC(=O)[C@H]([C@@H](C)O)NC(=O)[C@H](CC(=O)N(C)C)NC(=O)[C@@H](NC(=O)CCOCCOCC[N+](C)(C)C)C(C)(C)SSC(C)(C)[C@@H](C(=O)N[C@@H](Cc2ccc(OCCCCC[N+](C)(C)C)cc2)C(=O)N[C@@H](Cc2ccc3ccccc3c2)C(=O)NC2(C(=O)N[C@@H](CCCCN(C)C(C)=O)C(=O)N[C@@H](CC(N)=O)C(=O)N[C@@H](Cc3cccnc3)C(=O)N(C)CC(=O)N(C)C)CCOCC2)NC1=O [compound 507, cPEG3aCO-Pen(3)-N(N(Me)2)-T-W-K(NMeAc)-Pen(3)-TMAPF-2Nal-THP-K(NMeAc)-N-3Pya-Sar-CONMe2] ({Me3N+(CH2)2O(CH2)2O(CH2)2CO}-[Pen]D(NMe2)TW[Lys(Me)](Ac)[Pen]Y(X3)[2Nal][Thp][Lys(Me)](Ac)N[3Pal][Sar]-NMe2; disulfide 1-6)
32 nM	161 A^2	CC(=O)N(C)CCCC[C@@H]1NC(=O)[C@H](Cc2ccc3ccccc3c2)NC(=O)[C@H]([C@@H](C)O)NC(=O)[C@H](CC(=O)N(C)C)NC(=O)[C@@H](NC(=O)CCOCCOCC[N+](C)(C)C)C(C)(C)SSC(C)(C)[C@@H](C(=O)N[C@@H](Cc2ccc(OCCCCC[N+](C)(C)C)cc2)C(=O)N[C@@H](Cc2ccc3ccccc3c2)C(=O)NC2(C(=O)N[C@@H](CCCCN(C)C(C)=O)C(=O)N[C@@H](CC(N)=O)C(=O)N[C@@H](Cc3cccnc3)C(=O)N(C)CC(=O)N(C)C)CCOCC2)NC1=O [compound 509, cPEG3aCO-Pen(3)-N(N(Me)2)-T-2Nal-K(NMeAc)-Pen(3)-TMAPF-2Nal-THP-K(NMeAc)-N-3Pya-Sar-CONMe2] ({Me3N+(CH2)2O(CH2)2O(CH2)2CO}-[Pen]D(NMe2)T[2Nal][Lys(Me)](Ac)[Pen]Y(X3)[2Nal][Thp][Lys(Me)](Ac)N[3Pal][Sar]-NMe2; disulfide 1-6)
> 1220 nM	201 A^2	CC(=O)N(C)CCCC[C@@H]1NC(=O)[C@H](Cc2ccccc2)NC(=O)[C@H]([C@@H](C)O)NC(=O)[C@H](CC(=O)N(C)C)NC(=O)[C@@H](NC(=O)CCOCCOCC[N+](C)(C)C)C(C)(C)SSC(C)(C)[C@@H](C(=O)N[C@@H](Cc2ccc(OCCCCC[N+](C)(C)C)cc2)C(=O)N[C@@H](Cc2ccc3ccccc3c2)C(=O)NC2(C(=O)N[C@@H](CCCCN(C)C(C)=O)C(=O)N[C@@H](CC(N)=O)C(=O)N[C@@H](Cc3cccnc3)C(=O)N(C)CC(=O)N(C)C)CCOCC2)NC1=O [compound 510, cPEG3aCO-Pen(3)-N(N(Me)2)-T-F-K(NMeAc)-Pen(3)-TMAPF-2Nal-THP-K(NMeAc)-N-3Pya-Sar-CONMe2] ({Me3N+(CH2)2O(CH2)2O(CH2)2CO}-[Pen]D(NMe2)TF[Lys(Me)](Ac)[Pen]Y(X3)[2Nal][Thp][Lys(Me)](Ac)N[3Pal][Sar]-NMe2; disulfide 1-6)
> 16600 nM	198 A^2	CC(=O)N(C)CCCC[C@@H]1NC(=O)[C@H](CC(C)C)NC(=O)[C@H]([C@@H](C)O)NC(=O)[C@H](CC(=O)N(C)C)NC(=O)[C@@H](NC(=O)CCOCCOCC[N+](C)(C)C)C(C)(C)SSC(C)(C)[C@@H](C(=O)N[C@@H](Cc2ccc(OCCCCC[N+](C)(C)C)cc2)C(=O)N[C@@H](Cc2ccc3ccccc3c2)C(=O)NC2(C(=O)N[C@@H](CCCCN(C)C(C)=O)C(=O)N[C@@H](CC(N)=O)C(=O)N[C@@H](Cc3cccnc3)C(=O)N(C)CC(=O)N(C)C)CCOCC2)NC1=O [compound 511, cPEG3aCO-Pen(3)-N(N(Me)2)-T-L-K(NMeAc)-Pen(3)-TMAPF-2Nal-THP-K(NMeAc)-N-3Pya-Sar-CONMe2] ({Me3N+(CH2)2O(CH2)2O(CH2)2CO}-[Pen]D(NMe2)TL[Lys(Me)](Ac)[Pen]Y(X3)[2Nal][Thp][Lys(Me)](Ac)N[3Pal][Sar]-NMe2; disulfide 1-6)
